Structures can show the parent of a compound that is named as a salt.
Assays:
[1] = hydrobromide salt; cited from earlier work
[2] = target: T1, KOR (Homo sapiens, UniProt P41145); test: biochemical; assay type: binding
T1 construct: expressed in transfected cells
Protocol: (§1) Evidence for interaction was based on the inhibition of the reference ligand-binding signal. […] Briefly, 50 μL aliquots of radioactive ligand (5 nM) were added to wells of a 96-well plate, which contained 25 μL of the reference or test ligands. We employed transfected cell lines expressing mainly human (unless otherwise specified) recombinant receptors, monoamine transporters, or ion channels for crude membrane preparation. Detailed information about our membrane preparation is well known in the art and can be obtained from publicly available protocol online. Crude membrane fractions containing the receptors were resuspended in standard binding buffer and 50 μL aliquots added to each well. The reactions were incubated at room temperature for 1.5 hours to allow for radioligand binding equilibration. Bound radioactivity was harvested by rapid filtration through a 0.3% polyethyleneimine-treated, 96-well filter mats using a 96-well Filtermate harvester. The dried filters were treated with melted scintillant and a Microbeta scintillation counter was utilized to measure the radioactivity retained on the filter.

[3] = target: T2, H1 (Homo sapiens, UniProt P35367); test: biochemical; assay type: binding
T2 construct: expressed in transfected cells
Protocol: as §1

[4] = target: T3, MOR (Homo sapiens, UniProt P35372); test: biochemical; assay type: binding
T3 construct: expressed in transfected cells
Protocol: as §1

[5] = target: T4, Sigma 1 (Homo sapiens, UniProt Q99720); test: Molecular target profiling; assay type: binding
Target sequence in this assay (Q99720 whole entry, species assumed): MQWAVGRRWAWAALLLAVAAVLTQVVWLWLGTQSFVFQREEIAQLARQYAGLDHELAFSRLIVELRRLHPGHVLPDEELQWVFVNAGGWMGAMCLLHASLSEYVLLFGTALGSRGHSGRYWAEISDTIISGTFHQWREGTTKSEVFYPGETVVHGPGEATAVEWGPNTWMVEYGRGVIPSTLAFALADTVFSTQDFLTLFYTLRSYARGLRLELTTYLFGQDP

[6] = Solubilizing dezocine in formulations
Source text: All further solutions were created at about pH 4. […] No higher concentrations were attempted with this formulation.

[7] = tested on: morphine dependent rats; test: Morphine withdrawal syndrome scoring
Protocol: (1) The same volumes of normal saline (NS) were received subcutaneously in the naïve group. All other interventional drugs are administered by intraperitoneal injection.

[8] = target: T5, kappa opioid receptor (Homo sapiens, UniProt P41145); assay type: binding; parameters: expressed in transfected cells; conditions: mean±SE; read-out: Ki KOR
Protocol: The secondary binding assay was performed only when the inhibition in the primary screen was over 50%. A secondary binding assay was utilized to determine the binding affinity for the identified receptor.
50 μL of a crude membrane fraction of cells expressing the respective receptors were applied to each well. Reaction incubation, harvesting and radioactivity measurement from the primary assay were repeated. Affinity is expressed as pKi (−log Ki).

[9] = target: T4, Sigma 1; test: Primary radioligand binding screen; parameters: expressed in transfected cells
Protocol: as §1
Target sequence in this assay (Q99720 whole entry): as the sequence (Q99720 whole entry, species assumed) above

[10] = target: T5, kappa opioid receptor; assay type: biochemical; parameters: purchased Millipore (Billerica, Mass.); host or cells: Chem-5 mammalian cell line; conditions: ligand alone
Source text: Membrane preparations of recombinant human kappa opioid receptor expressed in the mammalian cell line Chem-5 were obtained from Millipore (Billerica, Mass.). The effects of specific kappa opioid receptor ligands on the activation of the recombinant receptor were investigated by measuring G protein activation in vitro.
The assay reports the initial rates of activation of heterotrimeric G proteins (Gαii1β1γ2) on an agonist-bound receptor by measuring the accumulation of [^35S]-GTPγS (non-hydrolyzable analog of GTP) bound to the activated Gαi1 subunit. […] The G protein activation assay was conducted as follows (final concentrations in 50 μL reaction mixture are given in parentheses): the membrane sample was diluted into ice-cold 10 mM 3-(N-morpholino)propanesulfonic acid (MOPS) buffer to reach a protein concentration of 40 ng/μL. 10 μL of the diluted dispersion were dispensed into pre-siliconized glass tubes and mixed with the ligand in MOPS buffer containing 0.1% (w/v) BSA. Upon addition of a mixture of Gαi1 (100 nM) and Gβ1γ2 (500 nM), the tubes were incubated on ice for 30 minutes. The reaction was started by addition of MOPS buffer pH=7.5 (50 mM), EDTA (1 mM), MgCl2 (3 mM), GDP (4 μM), BSA (0.3% w/v), NaCl (100 mM), DTT (1 mM), and [^35S]-GTPγS (5 nM, 1250 Ci/mmol) followed by rapid transfer of the tubes to a water bath at 30° C. The incubation continued for 45 minutes. The reaction was terminated by addition of 2 mL of ice-cold stop solution, TNMg (20 mM Tris-HCl pH=8.0, 100 mM NaCl, and 25 mM MgCl2). The reaction mixture was rapidly filtered through nitrocellulose filters (Millipore). Filters were washed four times with 2 mL each of cold TNMg buffer, dried, placed in scintillation vials filled with ScintiSafe Econo F scintillation liquid (Fisher, Waltham, Mass.), and the radioactivity counted. Duplicate samples corresponding to every ligand concentration point were counted.

[11] = tested on: chronic constriction injury (CCI) rats; test: Tactile allodynia, paw withdrawal threshold in CCI model; assay type: in vivo, rat; conditions: 3 mg/kg IP daily, days 1-10 after CCI, vs NS group, P<0.05
Protocol: CCI procedures on the sciatic nerve of male SD rats were performed as previously described. Briefly, after rats were anesthetized by i.p. injection of sodium pentobarbital (40 mg/kg), the right sciatic nerve of the mid-thigh level was exposed. Chromic gut 4-0 was loosely tied around the nerve for 4 ligatures with about 1 mm between knots. The ligation was performed to just barely reduce the diameter of sciatic nerve. […] In the sham group, the sciatic nerve was exposed without ligation. The incisions of rats were closed in layers. After recovery from anesthesia, rats were housed individually in the clear plastic cages with soft bedding covered with 3-6 cm of sawdust.
Same volume of normal saline (2 ml) was injected in the other two groups at the same time.
The paw withdrawal threshold (PWT) was used to evaluate mechanical allodynia for nociceptive response with Von Frey filaments. The rats were placed in transparent plexiglass cage with a wire mesh floor. After acclimating to their environments for 30 minutes, each filament was applied perpendicularly to the plantar surface of the right hind paw. The end point was determined as paw withdrawal accompanied by biting, head turning and/or licking. The force (in gram, g) needed for this reaction was recorded. […]

[12] = tested on: BZP Rat Brain Site; conditions: primary binding, dezocine 10 μM
Protocol: as §1

[13] = tested on: GABAA; test: Primary radioligand binding screen; parameters: species or system human; conditions: dezocine 10 μM
Protocol: as §1

[14] = Solubility in 20% cyclodextrin by HPLC; assay type: physicochemical; conditions: aqueous with cosolvent or surfactant or cyclodextrin, thermodynamic from solid, room temperature
Source text: It was filtered with 0.2 μm PTFE syringe filter after stirring for 24 hrs.

[15] = target: T6, human cloned SERT (Homo sapiens, UniProt P31645); test: Serotonin reuptake assay in HEK 293 cells; assay type: cell-based; conditions: mean±SE
T6 construct: expressed in transfected cells
Protocol: In brief, Human Embryonic Kidney 293 cells were plated in Poly-L-Lys (PLL) coated 384-well black clear bottom cell culture plates in DMEM+1% dFBS, at a density of 15,000 cells per well in a total volume of 40 μl. The cells were incubated for a minimum of 6 hours before use in the assays. The medium was removed and 20 μL of assay buffer (20 mM HEPES, 1×HBSS, pH 7.40) was added, followed by 5 μL of 5× drug solutions. The plate was incubated at 37° C. for 30 min. After the incubation, 25 μL of dye solution was added and fluorescence intensity was measured after […] at 37° C., using FlexStation II (bottom read mode, Excitation at 440 nm, Emission at 520 nm with 510 nm cut-off) from the Molecular Devices. […] The half maximal inhibitory concentration were determined and expressed as pIC50 (pIC50=−log (IC50)).

T5 sequence (P41145 whole entry): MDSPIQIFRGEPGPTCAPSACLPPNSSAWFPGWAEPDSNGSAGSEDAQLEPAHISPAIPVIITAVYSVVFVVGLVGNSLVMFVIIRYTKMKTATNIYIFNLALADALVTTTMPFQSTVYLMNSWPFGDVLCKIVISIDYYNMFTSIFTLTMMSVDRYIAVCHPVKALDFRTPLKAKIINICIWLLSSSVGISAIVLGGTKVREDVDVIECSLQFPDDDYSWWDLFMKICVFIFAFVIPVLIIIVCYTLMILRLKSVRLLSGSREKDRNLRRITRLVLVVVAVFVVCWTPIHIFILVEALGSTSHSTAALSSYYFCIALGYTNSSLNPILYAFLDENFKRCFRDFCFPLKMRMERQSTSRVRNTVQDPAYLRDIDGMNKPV
T2 sequence (P35367 whole entry): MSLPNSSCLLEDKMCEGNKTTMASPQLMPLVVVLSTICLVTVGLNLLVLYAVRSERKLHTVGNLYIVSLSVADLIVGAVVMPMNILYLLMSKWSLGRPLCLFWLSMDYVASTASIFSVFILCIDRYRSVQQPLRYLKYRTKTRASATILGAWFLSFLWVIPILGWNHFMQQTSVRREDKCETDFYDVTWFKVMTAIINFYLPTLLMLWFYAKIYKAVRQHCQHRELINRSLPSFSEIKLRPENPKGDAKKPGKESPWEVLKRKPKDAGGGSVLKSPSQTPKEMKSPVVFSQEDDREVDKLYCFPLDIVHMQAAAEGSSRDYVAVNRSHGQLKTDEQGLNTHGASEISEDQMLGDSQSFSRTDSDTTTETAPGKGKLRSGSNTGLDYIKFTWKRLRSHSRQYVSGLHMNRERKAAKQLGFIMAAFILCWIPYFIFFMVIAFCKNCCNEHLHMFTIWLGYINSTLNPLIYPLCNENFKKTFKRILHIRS
T1 sequence (P41145 whole entry): as the sequence (P41145 whole entry) above
T6 sequence (P31645 whole entry): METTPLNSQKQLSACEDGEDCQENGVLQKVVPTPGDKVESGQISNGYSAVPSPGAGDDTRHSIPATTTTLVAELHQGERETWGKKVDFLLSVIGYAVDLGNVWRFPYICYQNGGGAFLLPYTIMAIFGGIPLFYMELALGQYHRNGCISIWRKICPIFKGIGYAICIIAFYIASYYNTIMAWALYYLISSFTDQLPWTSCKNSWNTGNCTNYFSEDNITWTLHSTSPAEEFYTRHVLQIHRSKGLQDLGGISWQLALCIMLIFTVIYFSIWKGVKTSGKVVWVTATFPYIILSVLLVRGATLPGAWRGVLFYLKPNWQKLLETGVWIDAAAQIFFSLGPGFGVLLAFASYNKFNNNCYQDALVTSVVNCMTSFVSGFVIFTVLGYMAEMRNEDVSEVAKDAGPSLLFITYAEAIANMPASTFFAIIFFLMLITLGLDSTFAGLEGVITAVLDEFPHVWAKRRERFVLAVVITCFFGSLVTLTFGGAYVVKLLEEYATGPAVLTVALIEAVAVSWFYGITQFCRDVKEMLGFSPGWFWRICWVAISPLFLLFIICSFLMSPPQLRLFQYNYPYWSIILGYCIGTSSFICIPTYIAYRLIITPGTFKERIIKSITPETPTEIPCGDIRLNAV
T3 sequence (P35372 whole entry): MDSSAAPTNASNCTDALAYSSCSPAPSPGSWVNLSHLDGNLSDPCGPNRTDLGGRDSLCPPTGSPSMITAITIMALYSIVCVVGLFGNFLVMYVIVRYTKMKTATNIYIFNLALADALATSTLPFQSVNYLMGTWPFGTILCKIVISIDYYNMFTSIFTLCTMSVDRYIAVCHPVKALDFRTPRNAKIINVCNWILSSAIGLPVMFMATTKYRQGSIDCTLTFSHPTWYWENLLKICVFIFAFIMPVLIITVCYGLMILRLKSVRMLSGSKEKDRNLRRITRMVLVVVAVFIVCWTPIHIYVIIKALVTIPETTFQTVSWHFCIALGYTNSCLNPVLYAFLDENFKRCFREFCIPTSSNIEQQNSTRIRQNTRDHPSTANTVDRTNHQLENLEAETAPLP

C[C@@]12CCCCC[C@@H](Cc3ccc(O)cc31)[C@@H]2N [Dezocine, (−)-13β-amino-5,6,7,8,9,10,11,12-octahydro-5α-methyl-5,11-methanobenxocyclodecen-31-ol, hydrobromide]
solubility of the salt [1]: 20 mg/mL | inhibition at 10 µM [2]: 91.3% | inhibition at 10 µM [3]: 20.7% | inhibition at 10 µM [4]: 89.6% | interaction with sigma 1 receptor [5]: interact with sigma 1 receptor | Maximum Dezocine Concentration ([6]; 31% Propylene Glycol, 1% Lactic Acid, highest concentration attempted): 30 mg/mL | solubility ([6]; 31% propylene glycol, 6% PVOH solution, pH 4, aqueous with cosolvent or surfactant or cyclodextrin): 10 mg/mL | Maximum Dezocine Concentration ([6]; 50% Propylene Glycol): 2 mg/mL | Maximum Dezocine Concentration ([6]; Ethanol (200-proof), highest concentration attempted): 1 mg/mL | Maximum Dezocine Concentration ([6]; Propylene Glycol (pure)): 10 mg/mL | Maximum Dezocine Concentration ([6]; Water): insoluble | solubility ([6]; water): < 1 mg/mL | total score of morphine withdrawal symptoms ([7]; days 1-7, vs DMSO group, n=12, P<0.01 (FIG. 18)): alleviated the morphine withdrawal syndrome | total score of morphine withdrawal symptoms ([7]; dezocine 5 mg/kg IP, days 1-7, vs NS group, P<0.01): decreased significantly | Ki [8]: 31.9 ± 1.9 nM | inhibition at 10 µM [9]: 21.7% | G protein activation in the presence of kappa receptor [10]: no significant G protein activation | paw withdrawal threshold (PWT) [11]: increased markedly | % inhibition [12]: 11.5% | % inhibition [13]: −10.1% | solubility at 24 h ([14]; 20% 2-Hydroxypropyl-β-cyclodextrin (HPBCD)): 18 ± 1 mg/mL | solubility at 24 h ([14]; 20% 2-Hydroxypropyl-γ-cyclodextrin (HPGCD)): 24 ± 1 mg/mL | pIC50 of SERT (serotonin reuptake) [15]: 5.86±0.17
